{
  "source": "patent US20260102377A1",
  "about": "“COMPOSITIONS AND METHODS FOR TREATING MYASTHENIA GRAVIS” (priority 2022, published 2026)",
  "test_system": "EAMG rats",
  "assay": "Grip strength test after single dose of Mestinon and CIC-1 inhibitor alone or in combination",
  "type": "in vivo, rat",
  "conditions": "per oral, 45 minutes post dosing, 0.375 mg/kg Mestinon, 20 mg/kg NMD670 or both",
  "procedure": "To induce EAMG, 250 μL of emulsion of Complete Freund's Adjuvant, consisting of heat-inactivated Mycobacterium tuberculosis H37Ra in non-metabolizable oils, together with Phosphate-Buffered Saline (PBS) and 80 μg of the extracellular α-domain peptide fragment of the human nicotinic acetylcholine receptor (antigen) was injected subcutaneously in seven-week-old, anaesthetized Lewis rats. The disease-inducing antigen was supplied by the Hellenic Pasteur institute3. The emulsion was deposited at the tail base, left hindleg, and right foreleg. After injection, animals were allowed to recover and returned to their home cage maintained in ventilated racks under controlled temperature (20 to 22° C.) and humidity (˜55%) control, under a 12-h light/12-h dark cycle with food and water provided ad libitum. The animals had pathogen free status and the housing and changing system was designed to assure that the pathogen free status was preserved during the study. The EAMG rats were observed, weighed, and scored for MG symptoms weekly until symptoms of MG developed, whereafter animals were observed daily.\nIn EAMG animals with severe MG symptoms the effects of CIC-1 inhibitor and Mestinon (pyridostigmine) alone or in combination was assessed. […] The study was blinded to both the experimenter and during subsequent analysis. Animals were subjected to grip strength test before compound administration, as described above and then dosed per oral with either 0.375 mg/kg pyridostigmine bromide (Mestinon) (CAS-no 101-26-8), 20 mg/kg NMD670 or a combination of both pyridostigmine and NMD670. Grip strength was tested 45 minutes post dosing. […] The change in grip strengths was calculated for individual animals relative to the results obtained prior to administration of test article and then averaged.\nGrip strength was measured on a BIOSEB BIO-GT3 Grip strength meter (force transducer, S/N 180271). […] Care was taken to ensure that the force recorded reflected the grip strength of the rat and not the force of the pulls conducted by the operator. […]",
  "note": "Several values for one entry are separate records, joined by “and”; a condition that tells them apart may be missing. Equal entries are not always repeated.",
  "data": [
    {"smiles": "CN(C)C(=O)Oc1ccc[n+](C)c1", "note": "[Mestinon, pyridostigmine bromide, reference compound]", "values": [
      {"measurement": "Increase in Pulled Force (%)", "value": "5±4% and 5.3 ± 3.8%"}
    ]}
  ]
}
